PMC10449632, “Structural basis for translation inhibition by the glycosylated drosocin peptide” (Nature Chemical Biology, 2023)
No end group written: not given here. *: point of attachment. αGalNAc = CC(=O)N[C@@H]1[C@@H](O)[C@@H](O)[C@@H](CO)O[C@@H]1*

What was measured:
[1] = tested on: E. coli Keio ∆sbmA (BW25113 ΔsbmA); test: Antibiotic susceptibility (growth) assay, E. coli Keio ΔsbmA; format: cell-based, Escherichia coli; settings: 30 μM peptide, average of three biological replicates
Excerpt: Many PrAMPs use the SbmA transporter to pass through the E. coli inner membrane[4],[10],[31]; however, whether drosocin also uses SbmA remains, to our knowledge, unknown. To address this, we monitored the effect of the presence of diverse drosocin peptides (Fig. 1a,b and Supplementary Fig. 1a) on the growth of the wild-type E. coli strain BW25113 containing SbmA or lacking SbmA (ΔsbmA) (Fig. 1c,d). We compared unmodified drosocin (Dro) with various modified forms (Fig. 1a,b). The modified forms included the naturally occurring Dro1 and Dro2 that carry either a monosaccharide (α-D-GalNAc) or disaccharide (β-D-Gal(1→3)-α-D-GalNAc) attached to Thr11, respectively (Fig. 1b). In addition, we examined the previously reported[23],[24] drosocin derivatives bearing β-D-Maltosyl (Dro3), α-D-GlcNAc (Dro4), β-D-Gal (Dro5), β-D-Glc (Dro6), β-D-Lactosyl (Dro7) and β-D-Cellobiosyl (Dro8) modifications on Thr11 (Fig. 1a,b and Supplementary Fig. 1a). Finally, we also included in our analysis the synthetic unmodified drosocin derivative with proline substitutions at positions 7, 11 and 12 (Dro-3P) (Fig. 1a), which was previously reported to have similar antimicrobial activity to the monosaccharide form of drosocin[25]. Growth was monitored in both rich (LB) and minimal medium in the presence of 30 μM of each peptide and normalized with the growth in the absence of the compounds (Methods). […] We also observed no inhibition for Dro2 nor for any of the β-linked disaccharides (Dro3, Dro6 or Dro7). […] By contrast, all drosocin peptides inhibited growth of the E. coli BW25113 strain in minimal medium, albeit to different extents (Fig. 1d).
(§1) Strains E. coli Keio wild-type and E. coli Keio ΔsbmA used from the Keio knockout collection (Horizon, https://horizondiscovery.com). Wild-type E. coli SQ110 (ΔrrnGADBHC(ptRNA67))[47] and SQ171 (ΔrrnGADEHBC(pKK3535, ptRNA67))[47] strains and related mutants E. coli SQ110 A2059G and E. coli SQ171 A2503G were obtained from the previous Api137 study. E. coli strains SQ171 bearing A752G, U2609C and A752G:U2609C mutations[43] and E. coli SQ171 U2609G[48] were generated previously.
(§2) The susceptibility of E. coli strains to compounds was evaluated by monitoring the bacterial growth in presence of increasing concentrations of the compound of interest. In brief, bacteria were inoculated in a total volume of 100 μl of medium contained in a well of a 96-well microplate (round bottom, with cap, sterile; Sarstedt). The medium used was either LB, as rich medium, or ATCC medium (778 Davis and Mingioli glucose minimal medium), as minimal medium. Before inoculation, bacteria were grown up to exponential phase and then inoculated into the culture mix, containing selective antibiotic if necessary, with an initial optical density at 600 nm (OD600) of 0.05. Values measured from wells containing just the medium were used as a blank. The growth in each well was monitored by measuring the OD600 every 10 minutes for a total of 20 hours at 37 °C with shaking using a plate reader (Tecan Infinite 200 PRO). The inhibition resulting from a compound’s concentration was evaluated by normalizing the OD600 at t = 12 hours (corresponding to the end of the log phase) from the treated culture to the untreated one. For each compound, the concentrations tested were 5 μM, 10 μM and 30 μM. Each single titration assay was done in triplicate with individually prepared culture mixes. For each concentration, the standard deviation was calculated, taking into account each single replica and its specific technical error from the plate reader.

E. coli SQ171 wt = test: Antibiotic susceptibility (growth) assay, E. coli SQ171 wt; format: cell-based, Escherichia coli; settings: relative to no compound, mean of 3 replicas
Excerpt: as §1, §2

E. coli SQ171 U2609C = test: Antibiotic susceptibility (growth) assay, E. coli SQ171 U2609C; format: cell-based, Escherichia coli; settings: relative to no compound, mean of 3 replicas
Excerpt: (§3) In addition, we also used a strain with a U2609C–A752G double mutation, which would be predicted to restore Watson–Crick base pairing, and with three hydrogen bonds could possibly make breaking the base pair harder than with the canonical two hydrogen bonds for the A–U base pair. As a control, we also tested Dro that lacks the α-D-GalNAc modification, which we predict (assuming that Dro binds analogously to Dro1) should not interact with U2609 and, therefore, not be influenced by the conformation of the U2609–A752 base pair.
as §1, §2

[2] = tested on: E. coli SQ171 A752G/U2609C; test: Antibiotic susceptibility (growth) assay, E. coli SQ171 A752G/U2609C; format: cell-based, Escherichia coli; settings: for OD600 at t = 12 h, Normalized, Average: relative to no compound, mean of 3 replicas
Excerpt: as §3, §1, §2

[3] = tested on: ribosomes at the stop codon of MLIF-UAA mRNA in the presence of RF1; test: Toeprinting assay on MLIF*-mRNA with RF1; format: biochemical, Escherichia coli; settings: for Relative stop band intensity signal: 30 μM compound, MLIF*-mRNA, plotted values; for stalling of ribosomes at the stop codon: toeprinting, 30 μM peptide, 1× or 10× RF1 (trend also with ten-fold RF2)
Protocol: To ascertain which step during protein synthesis is affected by drosocin, we performed toeprinting assays, where reverse transcription is used to monitor the position of ribosomes on a defined mRNA[34].
Toeprinting reactions were performed as described previously. In brief, reactions were performed with 6 μl of PURExpress ΔRF123 in vitro protein synthesis system (NEB) in the presence of 1× RF3 and either 1× or 10× of RF1 or RF2 (relative to the manufacturer’s recommendation). The reactions were carried out on an MLIF-UAA-toeprint template (5′-[…]-3′, ORF start codon and stop codon are underlined bold), containing T7 promoter, a ribosome binding site, an MLIF-coding ORF and the NV1* primer binding site. The template is a version of the ErmBL template with a truncated ORF and addition of a isoleucine coding codon at the third position in the ORF. The template was generated by polymerase chain reaction of two overlapping 77-nt- and 78-nt-long primers. The reactions contained 30 ng of the MLIF-UAA-toeprint DNA template. The reactions were supplemented with Api137, thiostrepton or one of the drosocin derivates as specified. The transcription–translation reactions were incubated for 15 minutes at 37 °C. The reverse transcription on the MLIF-short-UAA toeprint template was carried out using AMV RT and primer NV*1-Alexa 647 (5′-[…]-3′). The transcription–translation reactions were incubated with AMV RT and NV*1-Alexa 647 for 20 minutes at 37 °C. mRNA degradation was carried out by the addition of 1 µl of 5 M NaOH. The reactions were neutralized with 0.7 µl of 25% HCl, and nucleotide removal was performed with the QIAquick Nucleotide Removal Kit (Qiagen). The samples were dried under vacuum for 2 hours at 60 °C for subsequent gel electrophoresis. The 6% acrylamide gels were scanned on a Typhoon scanner (GE Healthcare).

Row | Substance | Average of normalized growth ([1]; LB rich medium) [%] | Average of normalized growth ([1]; Minimal medium) [%] | OD600 at t = 12 h, Normalized, Average (E. coli SQ171 wt; 5 μM) [%] | OD600 at t = 12 h, Normalized, Average (E. coli SQ171 wt; 30 μM) [%] | OD600 at t = 12 h, Normalized, Average (E. coli SQ171 U2609C; 5 μM) [%] | OD600 at t = 12 h, Normalized, Average (E. coli SQ171 U2609C; 30 μM) [%] | OD600 at t = 12 h, Normalized, Average ([2]; 5 μM) [%] | OD600 at t = 12 h, Normalized, Average ([2]; 30 μM) [%] | tolerance of double mutant relative to the wild-type strain ([2]; U2609C–A752G double mutation vs wild-type SQ171, 30 μM) [fold] | Relative stop band intensity signal ([3]; Fig 1f, RF1 (1X)) | Relative stop band intensity signal ([3]; Fig 1g, RF1 (10X)) | stalling of ribosomes at the stop codon [3]
1 | Dro1: naturally occurring drosocin carrying monosaccharide α-D-GalNAc attached to Thr11 (GKPRPYSPRPT(αGalNAc)SHPRPIRV; UniProt P36193 22-40, looked up) | 99 | 106 | 93 | 11 | 40 | 5 | 70 | 25 | 2.5 | 0.3782 | 0.6764 | strongest stalling
2 | Dro: unmodified drosocin, 19 amino acid proline-rich antimicrobial peptide lacking O-glycosylation (GKPRPYSPRPTSHPRPIRV; Drosocin; UniProt P36193 22-40, looked up) | 102 | 102 | 86 | 72 | 92 | 71 | 85 | 72 | – | 0.2211 | 0.4823 | good activity
